Results published in patent US5583127A, “17-iminomethylalkenyl-5 β, 14 β-androstane and 17-iminoalkyl-5 β, 14 β-androstane derivatives active on the cardiovascular system, and pharmaceutical compositions containing same” (Sigma-Tau Industrie Farmaceutiche Riunite S.p.A., priority 1993, dated 1996).
pIC50: −log10 of the molar value. Like-named read-outs stand apart in the source and are kept apart here.

Columns and labels:
[1] = biological target: Na^+, K^+ -ATPase receptor (Homo sapiens, UniProt P05023); experiment: displacement of the specific 3H-ouabain binding from the Na+,K+-ATPase receptor; settings: for IC50: displacement of specific 3H-ouabain binding, read-out: Binding ^3 H-Ouab. Displacement log IC50 (converted)
[2] = biological target: purified Na^+,K^+ -ATPase (Homo sapiens, UniProt P05023); experiment: inhibition of the activity of the purified Na+,K+-ATPase (% hydrolysis of 32P-ATP); type: biochemical; settings: for IC50: read-out: Inhibitory Activity log IC50 (converted)

| SMILES | pIC50 [1] | IC50 [2] [nM] | IC50 [1] [nM] | IC50 ([2]; purified Na+,K+-ATPase) [nM] | pIC50 [2] |
| --- | --- | --- | --- | --- | --- |
| C[C@]12CC[C@H](O)C[C@H]1CC[C@@H]1[C@@H]2CC[C@]2(C)[C@@H](/C=C/C=N\NC3=NCCCN3)CC[C@]12O [Comp. I-ah, 17β-[3-(Z)-(1,4,5,6-Tetrahydro-2-pyrimidinyl)hydrazono-1-(E)-propenyl]-5β-androstane-3β,14β-diol] | 6.10 | 7940 | – | – | – |
| CO/N=C/C=C/[C@H]1CC[C@]2(O)[C@@H]3CC[C@@H]4C[C@@H](O)CC[C@]4(C)[C@H]3CC[C@]12C [Comp. I-an, (E,E)-17β-(3-Methoxyimino-1-propenyl)-5β-androstane-3β,14β-diol] | – | – | 2000 | 20000 | – |
| CN(C)CCCON=C/C=C/[C@H]1CC[C@]2(O)[C@@H]3CC[C@@H]4C[C@@H](O)CC[C@]4(C)[C@H]3CC[C@]12C (mixture of isomers) [Comp. I-ar, 17β-[3-(3-(EZ)-Dimethylaminopropoxyimino)-1-(E)-propenyl]-5β-androstane-3β,14β-diol] | – | – | 63.1 | 126 | – |
| CN1CCN=C1N/N=C/C=C/[C@H]1CC[C@]2(O)[C@@H]3CC[C@@H]4C[C@@H](O)CC[C@]4(C)[C@H]3CC[C@]12C [Comp. I-ae, (E,E)-17β-[3-(1-Methyl-2-imidazolin-2-yl)hydrazono-1-propenyl]-5β-androstane-3β,14β-diol] | 6.80 | – | – | – | 5.60 |
| CN(C)CCNC(=N)N/N=C/C=C/[C@H]1CC[C@]2(O)[C@@H]3CC[C@@H]4C[C@@H](O)CC[C@]4(C)[C@H]3CC[C@]12C [Comp. I-ai, (E,E)-17β-{3-[3-(2-Dimethylaminoethyl)guanidinoimino]-1-propenyl}-5β-androstane-3β,14β-diol] | – | 3160 | 251 | – | – |
| C[C@]12CC[C@H](O)C[C@H]1CC[C@@H]1[C@@H]2CC[C@]2(C)[C@@H](/C=C/C=NOCCNC(=N)N)CC[C@]12O (mixture of isomers) [Comp. I-as, 17β-[3-(EZ)-(2-Guanidinoethoxyimino)-1-(E)-propenyl]-5β-androstane-3β,14β-diol] | 7.00 | – | – | 158 | – |
| CN(C)CCON=C/C=C/[C@H]1CC[C@]2(O)[C@@H]3CC[C@@H]4C[C@@H](O)CC[C@]4(C)[C@H]3CC[C@]12C (mixture of isomers) [Comp. I-aq, 17β-[3-(EZ)-(2-Dimethylaminoethoxyimino)-1-(E)-propenyl]-5β-androstane-3β,14β-diol] | – | – | 25.1 | 31.6 | – |
| C[C@]12CC[C@H](O)C[C@H]1CC[C@@H]1[C@@H]2CC[C@]2(C)[C@@H](CCC=NOCCN)CC[C@]12O (mixture of isomers) [Comp. I-bm, (EZ)-17β-[3-(2-Aminoethoxyimino)propyl]-5β-androstane-3β,14β-diol] | – | – | 25.1 | 79.4 | – |
| C[C@]12CC[C@H](O)C[C@H]1CC[C@@H]1[C@@H]2CC[C@]2(C)[C@@H](/C=C/C=N\NC(=N)N)CC[C@]12O [Comp. I-ab, 17β-[3-(Z)-Guanidinoimino-1-(E)-propenyl]-5β-androstane-3β,14β-diol] | – | 3160 | 316 | – | – |
| C[C@]12CC[C@H](O)C[C@H]1CC[C@@H]1[C@@H]2CC[C@]2(C)[C@@H](CCC=NNC3=NCCN3)CC[C@]12O (mixture of isomers) [Comp. I-bj, (EZ)-17β-[3-(2-Imidazolin-2-yl)hydrazonopropyl]-5β-androstane-3β,14β-diol] | – | 3160 | 251 | – | – |
| C[C@]12CC[C@H](OCCCN)C[C@H]1CC[C@@H]1[C@@H]2CC[C@]2(C)[C@@H](/C=C/C=N/NC(=N)N)CC[C@]12O [qomp. I-cd, (E,E)-3β-(3-Aminopropoxy)-17β-(3-guanidinoimino-1-propenyl)-5β-androstane-3β,14β-diol] | – | – | 15.8 | 79.4 | – |
| C[C@]12CC[C@H](O)C[C@H]1CC[C@@H]1[C@@H]2CC[C@]2(C)[C@@H](CC=NOCCCN)CC[C@]12O (mixture of isomers) [Comp. I-bg, (EZ)-17β-[2-(3-Aminopropoxyimino)ethyl]-5β-androstane-3β,14β-diol] | 7.30 | – | – | 398 | – |
| C[C@]12CC[C@@H](O)C[C@H]1CC[C@@H]1[C@@H]2CC[C@]2(C)[C@@H](/C=C/C=N/NC(=N)N)CC[C@]12O [Comp. I-ej, (E,E)-17β-(3-Guanidinoimino-1-propenyl)-5β-androstane-3α,14β-diol] | 7.30 | – | – | 316 | – |
| C[C@]12CC[C@H](O)C[C@H]1CC[C@@H]1[C@@H]2CC[C@]2(C)[C@@H](/C=C/C=N/NC3=NCC(=O)N3)CC[C@]12O [Comp. I-af, (E,E)-17β-[3-(5-Oxo-2-imidazolin-2-yl)hydrazono-1-propenyl]-5β-androstane-3β,14β-diol] | – | – | 2000 | 39800 | – |
| C[C@]12CC[C@H](OCCN3CCCC3)C[C@H]1CC[C@@H]1[C@@H]2CC[C@]2(C)[C@@H](/C=C/C=NNC(=N)N)CC[C@]12O [Comp. I-bx, 3β-[2-(1-Pyrrolidinyl)ethoxy]-17β-(3-(E,Z)-guanidinoimino-1-(E)-propenyl)-5β-androstane-3β,14β-diol] | – | – | 20 | 126 | – |
| CN(C)CCON=CC[C@H]1CC[C@]2(O)[C@@H]3CC[C@@H]4C[C@H](O)CC[C@]4(C)[C@H]3CC[C@]12C (mixture of isomers) [Comp. I-cm, (EZ)-17β-[2-(2-Dimethylaminoethoxyimino)ethyl]-5β-androstane-3α,14β-diol] | – | 1000 | 100 | – | – |

| SMILES | pIC50 [1] | IC50 [2] [nM] | IC50 [1] [nM] | IC50 ([2]; purified Na+,K+-ATPase) [nM] | pIC50 [2] |
| --- | --- | --- | --- | --- | --- |
| C[C@]12CC[C@H](O)C[C@H]1CC[C@@H]1[C@@H]2CC[C@]2(C)[C@@H](/C=C/C=C/C=N/NC3=NCCCN3)CC[C@]12O [Comp. I-aw, (E,E,E)-17β-[5-(1,4,5,6-Tetrahydro-2-pyrimidinyl)hydrazono-1,3-pentadienyl]-5β-androstane-3β,14β-diol] | – | 15800 | – | – | – |
| CN(C)CCON=C/C=C/[C@H]1CC[C@]2(O)[C@@H]3CC[C@@H]4C[C@@H](OCCCN)CC[C@]4(C)[C@H]3CC[C@]12C (mixture of isomers) [Comp. 1-ce, 3β-(3-Aminopropoxy)-17β-[3-(EZ)-(2-dimethylaminoethoxy-imino)-1-(E)-propenyl]-5β-androstane-14β-ol] | – | – | 15.8 | 20 | – |
| CN(C)CCON=CC[C@H]1CC[C@]2(O)[C@@H]3CC[C@@H]4C[C@@H](O)CC[C@]4(C)[C@H]3CC[C@]12C (mixture of isomers) [Comp. I-bh, (EZ)-17β-[2-(2-Dimethylaminoethoxyimino)ethyl]-5β-androstane-3β,14β-diol] | – | – | 39.8 | 631 | – |
| C[C@]12CC[C@H](O)C[C@H]1CC[C@@H]1[C@@H]2CC[C@]2(C)[C@@H](/C=C/C=N/NC3=NCCCN3)CC[C@]12O [Comp. I-ag, (E,E)-17β-[3-(1,4,5,6-Tetrahydro-2-pyrimidinyl)hydrazono-1-propenyl]-5β-androstane-3β,14β-diol] | – | – | 39.8 | 1580 | – |
| C[C@]12CC[C@H](O)C[C@H]1CC[C@@H]1[C@@H]2CC[C@]2(C)[C@@H](/C=C/C=NOCCCNC(=N)N)CC[C@]12O (mixture of isomers) [Comp. I-at, 17β-[3-(EZ)-(3-Guanidinopropoxyimino)-1-(E)-propenyl]-5β-androstane-3β,14β-diol] | – | – | 158 | 316 | – |
| C[C@]12CC[C@H](O)C[C@H]1CC[C@@H]1[C@@H]2CC[C@]2(C)[C@@H](CC=NNC3=NCCN3)CC[C@]12O (mixture of isomers) [Comp. I-bd, (EZ)-17β-[2-(2-Imidazolin-2-yl)hydrazonoethyl]-5β-androstane-3β,14β-diol] | – | – | 126 | 631 | – |
| CN(C)CCO/N=C/C=C/[C@H]1CC[C@]2(O)[C@@H]3CC[C@@H]4C[C@H](O)CC[C@]4(C)[C@H]3CC[C@]12C [Comp. I-ck, (E,E)-17β-[3-(2-Dimethylaminoethoxyimino)-1-propenyl]-5β-androstane-3α,14β-diol] | 7.30 | – | – | 63.1 | – |
| C[C@]12CC[C@H](O)C[C@H]1CC[C@@H]1[C@@H]2CC[C@]2(C)[C@@](O)(/C=C/C=N/NC3=NCCN3)CC[C@]12O [Comp. I-bp, (E,E)-17β-[3-(2-Imidazolin-2-yl)hydrazono-1-propenyl]-5β-androstane-3β,14β,17α-triol] | – | 7940 | 631 | – | – |
| C[C@]12CC[C@H](OCCN)C[C@H]1CC[C@@H]1[C@@H]2CC[C@]2(C)[C@@H](/C=C/C=NNC(=N)N)CC[C@]12O (mixture of isomers) [Comp. I-cb] | – | – | 20 | 100 | – |
| CN(C)CCON=CC[C@H]1CC[C@]2(O)[C@@H]3CC[C@@H]4C[C@@H](OCCCN5CCCC5)CC[C@]4(C)[C@H]3CC[C@]12C (mixture of isomers) [Comp. I-ci, 3β-[3-(1-Pyrrolidinyl)propoxy]-17β-[3-(EZ)-(2-dimethylamino-ethoxyimino)ethyl]-5β-androstane-14β-ol] | 7.30 | – | – | 158 | – |
| C[C@]12CC[C@H](O)C[C@H]1CC[C@@H]1[C@@H]2CC[C@]2(C)[C@@H](/C=C/C=N/NC(N)=O)CC[C@]12O [Comp. I-ak, (E,E)-17β-(3-Semicarbazono)-1-propenyl-5β-androstane-3β,14β-diol] | – | 25100 | 2000 | – | – |
| C[C@]12CC[C@H](O)C[C@H]1CC[C@@H]1[C@@H]2CC[C@]2(C)[C@@](O)(/C=C/C=N/NC(=N)N)CC[C@]12O [Comp. 1-bo, (E,E)-17β-(3-Guanidinoimino-1-propenyl)-5β-androstane-3β,14β,17α-triol] | – | – | 501 | 10000 | – |
| C[C@]12CC[C@H](O)C[C@H]1CC[C@@H]1[C@@H]2CC[C@]2(C)[C@@H](/C=C/C=N/NC3=NCCN3)CC[C@]12O [Comp. I-ac, (E,E)-17β-[3-(2-Imidazolin-2-yl)hydrazono-1-propenyl]-5β-androstane-3β,14β-diol] | 7.30 | – | – | – | – |
| C[C@]12CC[C@H](O)C[C@H]1CC[C@@H]1[C@@H]2CC[C@]2(C)[C@@H](/C=C/C=N\NC3=NCCN3)CC[C@]12O [Comp. I-ad, 17β-[3-(Z)-(2-Imidazolin-2-yl)hydrazono-1-(E)-propenyl]-5β-androstane-3β,14β-diol] | 6.20 | – | – | – | – |
| C[C@]12CC[C@H](O)C[C@H]1CC[C@@H]1[C@@H]2CC[C@]2(C)[C@@H](/C=C/C=C/C=N/N=C(N)N)CC[C@]12O [Comp. I-au] | – | – | 501 | – | – |
